Measured values reported in article PMC5244392, “Interspecies cathelicidin comparison reveals divergence in antimicrobial activity, TLR modulation, chemokine induction and regulation of phagocytosis” (Scientific Reports, 2017).

Key:
[1] = test system: methicillin resistant Staphylococcus aureus (MRSA) (WKZ-2, human clinical isolate); assay: Bacterial growth delay (Bioscreen C), MRSA; assay type: cell-based
Experimental: (§1) E. coli O78 (Zoetis Animal Health, Kalamazoo, MI, USA), E. coli ATCC 25922, Staphylococcus aureus ATCC 29213, and methicillin resistant Staphylococcus aureus (MRSA) (WKZ-2, human clinical isolate) were grown overnight from a glycerol stock in Mueller Hinton Broth (MHB) (Becton Dickinson, USA). Before use, bacteria were grown to mid-log phase in MHB for 2 hours at 37 °C, 200 RPM. Murine RAW264.7 macrophages (ATCC-TIB-71) were obtained from the American Type Culture Collection (ATCC, Manassas, VA, USA) and cultured in DMEM (41966-029; Thermo Fisher Scientific, Waltham, MA, USA) supplemented with 10% FCS (Bodinco B.V., Alkmaar, the Netherlands) (DMEM + FCS) at 37 °C, 5.0% CO2. Cells were seeded in 96-wells plates at 5 × 10^5 cells/ml or 12-wells plates at 2 × 10^5/ml for adherence overnight prior to stimulation.
(§2) Peptides (0.63 to 40 μM) and bacteria mid-log cultures (2 * 10^6 CFU/ml) were prepared in MHB or DMEM + FCS and mixed (100 μl peptide + 100 μl bacterial culture) in a Bioscreen C analyzer plate (Oy Growth Curves Ab Ltd, Helsingfors, Finland). Plates were placed in a Bioscreen C analyzer (Oy Growth Curves Ab Ltd) and bacteria were grown for 16 h at 37 °C with 200 RPM. The OD was measured every 15 minutes using a wideband filter (450–580 nm) to measure bacterial growth. The time needed grow above an OD of 0.6 was determined for all concentrations. Activity of peptides was expressed as the Cmax, the concentration of peptide required to delay the growth for 10 h compared to the control. Or, for peptides with low activity (no Cmax), activity was expressed as the hours of growth delay at 20 μM. Unlike the classic MIC and MBC determination used in microbiology, this method also enabled comparison of peptides with low antibacterial activity.
(§3) Twelve cathelicidins from 6 different species were selected for this study, namely: human LL-37, murine CRAMP, dog K9CATH, equine CATH (eCATH)-1, -2 and -3, chicken CATH (chCATH)-1, -2, and -3, porcine PMAP-23 and -36 and PR-39 (Table 1). Antimicrobial activity against E. coli and MRSA was directly compared under standardized conditions in MHB, a medium optimized for bacterial growth. Bacterial growth delay was defined as the delay in hours for peptide-treated bacteria to reach an OD of 0.6, compared to the non-treated control. Cmax is the minimal concentration needed to delay growth for a minimum of 10 hours compared to the non-treated control (Table 1 and Fig. 1A).
(§4) Figure 1 Antibacterial activity of cathelicidins. E. coli and MRSA (1 × 10^6 CFU/ml) of were grown in MHB or DMEM ± FCS for 16 hours under constant shaking (200 RPM). Every 15 minutes the OD was measured. Growth delay was defined as the time needed for peptide-treated bacteria to grow above an OD of 0.6 compared to the control bacteria (no peptide added) (A). Cathelicidins were tested in different concentrations (0.31 μM, 0.63 μM, 1.25 μM, 2.5 μM, 5 μM, 10 μM, and 20 μM) to determine the antimicrobial activity in MHB against E. coli (B) or MRSA (C) and in more physiological medium DMEM + FCS (D,E). Results are presented as average +/− SEM (N = 4).

RAW264.7 cells = assay: Phagocytosis assay with fluorescent latex beads; assay type: cell-based, murine; conditions: latex beads 10 per cell, 30 min, peptide 0.31, 1.25 and 5 μM
Experimental: Red fluorescent (λex 575 nm and λem 610 nm) carboxylate-modified polystyrene latex beads (0.5 μm; Sigma Aldrich, St. Louis, MO, USA) were washed three times with PBS and resuspended in culture medium. Peptide dilutions were prepared in culture medium and added to RAW264.7 cells, directly followed by the latex beads (ratio 10 beads to 1 cell). Cells were incubated for 30 minutes at 37 °C, 5% CO2 (energy-dependent uptake) or 0 °C (non-specific adherence), after which cells were washed extensively with ice-cold PBS supplemented with 1% FCS and 0.01% NaN3, to remove all free beads. After washing, cells were scraped and resuspended in FACS buffer (PBS supplemented with 0.5% BSA). Samples were measured with the BD FACSCanto II flow cytometer (BD Biosciences, San Jose, CA, USA) and analyzed with FlowJo software (Ashland, OR, USA). Mean fluorescence intensity (MFI), corrected for non-specific adherence, was used as an indicator for the number of beads taken up.
While the above-described functions of cathelicidins are well-known, relatively little is known about the influence of cathelicidins on phagocytosis. Therefore, RAW264.7 cells were incubated with fluorescent beads to study the effect of cathelicidins on phagocytosis. The uptake was corrected for fluorescence measured after incubation on ice instead of 37 °C, which inhibits the active process of phagocytosis. After 30 minutes, 90% of the RAW264.7 cells took up latex beads (Fig. 4A). Histograms exemplify changes in bead phagocytosis with different concentrations of K9CATH (Fig. 4B), eCATH-2 (Fig. 4C) and chCATH-3 (Fig. 4D). Effect of all cathelicidins are depicted by the average mean fluorescence intensity (MFI) in Fig. 4E.
Figure 4 Effects of cathelicidins on phagocytosis by RAW264.7 cells. RAW264.7 cells were incubated with cathelicidins (0.31 μM, 1.25 μM, and 5 μM) and red fluorescent latex beads (10 beads to 1 cell) at 37 °C (energy dependent uptake) or on ice (non-specific adherence) for 30 minutes. Histograms show control (no peptide present) bead uptake at 37 °C (gray, filled) and 0 °C (black line) (A), or uptake in presence of different concentrations of indicated cathelicidins (B–D); 0 μM (red, filled), 0.31 μM (black line), 1.25 μM (green line) or 5 μM (blue line). Uptake was quantified by determining the MFI after correction for 0 °C control (E). Results are presented as average +/− SEM (N = 3). Statistical differences were determined by Two-way ANOVA with Bonferroni post-hoc test.

[2] = test system: CCL2 (MCP-1) release by RAW264.7 cells; assay: Cathelicidin induced CCL2 release; assay type: cell-based, murine; conditions: 24 h, peptide 0.08-20 μM
Experimental: as §1
ELISA Duoset kits for mouse TNFα, CCL5, CXCL10 and IL-10 were obtained from R&D systems (Minneapolis, MN, USA) and ELISAs were performed according to the manufacturer’s protocol. Samples were stored at −20 °C until analysis and, if needed, diluted in 1% BSA in PBS, pH 7.4. Absorbance at 450 nm was determined in a FLUOstar Omega microplate reader (BMG Labtech GmbH) and corrected for absorbance at 570 nm. Results were analyzed with MARS data analysis software (BMG Labtech GmbH).
Since cathelicidins have membrane-perturbing properties which might affect the host’s cell membrane, first the possible cytotoxicity of the cathelicidins to RAW264.7 cells was assessed. […] Next, RAW264.7 cells were stimulated with the cathelicidins at various concentrations for 2 h and 24 h, after which release of CCL2 (MCP-1), CCL5 (RANTES), CXCL10 (IP-10), TNFα and IL-10 was determined.
Figure 2 Cathelicidin induced chemokine and cytokine release by RAW264.7 cells. RAW264.7 cells were incubated for 2 h and 24 h with cathelicidins (0.08 μM, 0.31 μM, 1.25 μM, 5 μM, and 20 μM), after which the supernatants were harvested and tested for release of CCL2 at 2 h (A) and 24 h (B), CCL5 at 24 h (C) and CXCL10 at 24 h (D). Dotted line represents average cytokine release of control samples. Results are presented as average +/− SEM (N = 3). Statistical differences were determined by Two-way ANOVA with Bonferroni post-hoc test.

E. coli O78 = assay: Bacterial growth delay (Bioscreen C), E. coli; assay type: cell-based, Escherichia coli; conditions: for Max: hours growth delay with 20 μM cathelicidin, E. coli, DMEM: DMEM + FCS
Experimental: as §1, §2, §3, §4

E. coli and MRSA = assay type: cell-based; conditions: run of Fig. 1A; bacterium and medium not given
Experimental: In order to compare our Cmax with MBC values, wells without visible bacterial growth were plated out on TSA plates and incubated o/n at 37 °C to determine the presence of viable bacteria.
The antimicrobial capacities were tested under the same conditions and expressed as growth delay instead of the more classical MIC/MBC determination using broth dilution assays. […] The fact that DMEM medium makes S. aureus susceptible to PR-39 is surprising since this peptide is thought to require active uptake by the SbmA transporter, only present in Gram – bacteria. The results obtained in this work, might indicate that the peptide possibly switches to a different mechanism of action with initially a bacteriostatic effect, but more thorough studies are required to elucidate the details of these initial observations.

[3] = MHB, 20 μM peptide, given if no Cmax was reached, N = 4
[4] = 20 μM peptide, given if no Cmax was reached, N = 4

| Compound | Cmax, MRSA, DMEM ([1]; DMEM + FCS, 1 × 10^6 CFU/ml, peptide 0.31-20 μM, 16 h, 37 °C, — = no Cmax reached up to 20 μM, N = 4) [µM] | Summary class, antimicrobial activity S. aureus DMEM ([1]; DMEM + FCS, MRSA, − is not defined in the key) | Max: hours growth delay with 20 μM cathelicidin, MRSA, MHB [1, 3] [h] | Summary class, antimicrobial activity S. aureus MHB ([1]; MHB, MRSA, − is not defined in the key) | Effect on bead uptake (phagocytosis), in words (RAW264.7 cells) | Effect on CCL2 secretion after 24 h stimulation, in words [2] | Max: hours growth delay with 20 μM cathelicidin, E. coli, DMEM (E. coli O78; [4]) [h] | Cmax: cathelicidin concentration resulting in a delay in bacterial growth with minimal 10 hours, E. coli, MHB (E. coli O78; MHB, 1 × 10^6 CFU/ml, peptide 0.31-20 μM, 16 h, 37 °C, 200 RPM, time to OD 0.6 vs control, — = no Cmax reached up to 20 μM, N = 4) [µM] | Summary class, antimicrobial activity E. coli MHB (E. coli O78; MHB, − is not defined in the key) | MBC (E. coli and MRSA) [µM] | Max: hours growth delay with 20 μM cathelicidin, MRSA, DMEM ([1]; DMEM + FCS, 20 μM peptide, given if no Cmax was reached, N = 4) [h] | Activity against E. coli in MHB, in words (E. coli O78; MHB, peptide up to 20 μM) | Max: hours growth delay with 20 μM cathelicidin, E. coli, MHB (E. coli O78; MHB, 20 μM peptide, given if no Cmax was reached, time to OD 0.6 vs control, N = 4) [h] |
| --- | --- | --- | --- | --- | --- | --- | --- | --- | --- | --- | --- | --- | --- |
| KRFGRLAKSFLRMRILLPRRKILLAS [eCATH-1, equine CATH-1, 26 residues, charge +9] | 20 | +++ (+++ = Cmax at ≤20 μM) | 7.5 | + (+ = >4 hours inhibition at 20 μM) | did not affect bead uptake | non-significant | 3.5 | 20 | +++ (+++ = Cmax at ≤20 μM) |  |  |  |  |
| CC[C@H](C)[C@H](NC(=O)[C@H](CCCCN)NC(=O)[C@H](CCC(=O)O)NC(=O)[C@H](CCCCN)NC(=O)[C@H](CO)NC(=O)[C@H](CCCCN)NC(=O)[C@H](CCCNC(=N)N)NC(=O)[C@H](Cc1ccccc1)NC(=O)[C@H](Cc1ccccc1)NC(=O)[C@H](CC(=O)O)NC(=O)CNC(=O)[C@H](CC(C)C)NC(=O)[C@@H](N)CC(C)C)C(=O)NCC(=O)N[C@@H](CCCCN)C(=O)N[C@@H](CCC(=O)O)C(=O)N[C@@H](Cc1ccccc1)C(=O)N[C@@H](CCCCN)C(=O)N[C@@H](CCCNC(=N)N)C(=O)N[C@H](C(=O)N[C@H](C(=O)N[C@@H](CCC(N)=O)C(=O)N[C@@H](CCCNC(=N)N)C(=O)N[C@H](C(=O)N[C@@H](CCCCN)C(=O)N[C@@H](CC(=O)O)C(=O)N[C@@H](Cc1ccccc1)C(=O)N[C@@H](CC(C)C)C(=O)N[C@@H](CCCNC(=N)N)C(=O)N[C@@H](CC(N)=O)C(=O)N[C@@H](CC(C)C)C(=O)N[C@H](C(=O)N1CCC[C@H]1C(=O)N[C@@H](CCCNC(=N)N)C(=O)N[C@H](C(=O)N[C@@H](CCC(=O)O)C(=O)N[C@@H](CO)C(=O)O)[C@@H](C)O)C(C)C)[C@@H](C)CC)C(C)C)[C@@H](C)CC [LL-37] |  |  |  |  |  |  |  |  |  | > 20 |  |  |  |
| KRFHSVGSLIQRHQQMIRDKSEATRHGIRIITRPKLLLAS [eCATH-3, equine CATH-3, 40 residues, charge +10] |  |  | 0.0 |  | did not affect bead uptake |  | 1.5 |  |  |  | 1.5 | no or very little activity | 0.0 |
